Data published in patent publication EP4818330A1, “PHARMACEUTICAL PREPARATION FOR DIAGNOSING AND TREATING ALZHEIMER'S DISEASE” (Shanghai East Hospital Tongji University, priority 2023, dated 2025).
Where “and” joins values, the source holds several entries; their conditions need not be identical. Equal values may be shown once. Read-outs that look alike come from different tables or passages of the source.

Columns and labels:
APP/PS1 transgenic mice = experiment: Morris water maze in APP/PS1 x Thy1-GFP mice; format: in vivo
Experimental: Thy1-GFP mice are commonly used in neuroscience research. The fluorescence labeling of GFP facilitates convenient observation and tracking of specific cell types, especially neurons. APP/PS1 transgenic mice (an animal model of Alzheimer's disease) were crossed with Thy1-GFP mice. The crossed mice aged 5 months were intraperitoneally injected with a compound solution at a concentration of 2.5 mg/kg for 1 month continuously. Subsequently, the crossed mice aged 6 months were subjected to behavioral test (Morris water maze MWM experiment) to evaluate learning and memory abilities (as shown in FIG. 22).
Water maze: A water maze experimental apparatus is circular stainless steel with a diameter of 100 cm and a height of 50 cm, wherein a pool is equally divided into 4 quadrants according to the 4 orientations of east, south, west and north, a circular black hidden platform with a diameter of 9 cm and a height of 27 cm is placed in the center of the target quadrant. […] The movement trajectory of the mouse was synchronously recorded by the camera directly above the water pool, and analyzed by the EthovisionXT monitoring and analysis system. […] The mouse swam in the water for 60 s, and the percentage of time the mouse spent in the target platform quadrant was recorded, representing the learning and memory ability of the mouse.

293T cell line = experiment: CCK8 cell viability (toxicity) assay in 293T cell line; format: cell-based; details: 293T, 24 h, CCK8, three replicate wells
Source text: (§1) The CCK8 cell viability assay (CCK8) was adopted. Its principle is mainly based on the reduction reaction of WST-8 (chemical name: 2-(2-methoxy-4-nitrophenyl)-3-(4-nitrophenyl)-5-(2,4-disulfophenyl)-2H-tetrazolium monosodium salt). In the presence of living cells, WST-8 can be reduced by dehydrogenases in mitochondria to generate a highly water-soluble orange-yellow formazan product. The color intensity is directly proportional to the number of living cells, wherein the quantity of living cells can be indirectly reflected by measuring the absorbance of formazan products (typically at a wavelength of 450 nm). The CCK-8 assay is widely used in cell proliferation assay, cytotoxicity assay and tumor drug sensitivity test.
(§2) In in vitro experiments, the compound stock solution was prepared into 10 mM with DMSO and diluted with a culture medium before use. The 293T cell line was used for preliminary concentration screening of the compound, wherein concentration gradients were set as follows: 5 µmol, 10 µmol, 20 µmol, 40 µmol, 80 µmol and 160 µmol. After the cells were treated with the compound for 24 h, the CCK8 detection kit was used, wherein the cell viability was calculated based on the absorbance values detected by a microplate reader. Data processing was performed using GraphPad Prism software to plot the IC50 curve.

[1] = as above; format: cell-based; details: human, 293T cells, 293T, 24 h, CCK8, three replicate wells
Source text: as §1, §2

[2] = Drug content in brain tissue after single intraperitoneal administration; format: in vivo, Balb/c strain mice; details: mice; for concentration at 0.5 h: brain, ip
Experimental: Research method: first, Balb/c strain mice were administered with a single intraperitoneal injection at a concentration of 2.5 mg/kg, and the content of the compound in serum was detected at 0.25, 0.5, 1, 2, 4, 6, 8 and 24 h after injection; second, brain tissues of mice at 0.5, 4 and 24 h after injection were collected to detect the compound content, so as to evaluate the blood-brain barrier penetration rate.

CCOC(=O)c1[nH]c(C)c(CCC(=O)N2CCCC(C(=O)NCCN3CCCCCC3)C2)c1C (centres unmarked) [compound of Formula I, ETHYL4-[3-(3-{[2-(AZEPAN-1-YL)ETHYL]CARBAMOYL}PIPERIDIN-1-YL)-3-OXOPROPYL]-3, 5-DIMETHYL-1H-PYRROLE-2-CARBOXYLATE]
time percentage in the platform quadrant (APP/PS1 transgenic mice; APP/PS1+ intervention, IP 2.5 mg/kg for 1 month, day 7 spatial exploration, individual animals, 2.5 mg/kg): 12.17% and 26.78% and 27.89% and 19.335% and 31.945% and 22% and 29.11% | time percentage of mice in the platform quadrant (APP/PS1 transgenic mice; after compound intervention vs APP/PS1 mice): increased | cell viability (293T cell line; 5 µmol): 106.6% and 109.2% | cell viability (293T cell line; 10 µmol): 109.8% and 96.54% | cell viability (293T cell line; 20 µmol): 95.56% and 93.46% | cell viability (293T cell line; 40 µmol): 86.71% and 78.81% | cell viability (293T cell line; 80 µmol): 24% and 23.36% | cell viability (293T cell line; 160 µmol): 32.01% and 28.26% | viability at 24 h, 5 µmol ([1]; 5 µmol): 96.6% | viability at 24 h, 10 µmol ([1]; 10 µmol): 109% | viability at 24 h, 20 µmol ([1]; 20 µmol): 93.1% | viability at 24 h, 40 µmol ([1]; 40 µmol): 86.7% | viability at 24 h, 80 µmol ([1]; 80 µmol): 22.7% | viability at 24 h, 160 µmol ([1]; 160 µmol): 27.2% | concentration at 0.5 h ([2]; Balb/c, mouse, 2.5 mg/kg, IP 2.5 mg/kg, 0.5 hr, individual animals, read-out: Concentration (brain tissue)): 16.8 ng/mL | concentration at 0.5 h ([2]; Balb/c, mouse, 2.5 mg/kg, IP 2.5 mg/kg, 0.5 hr, mean of 3 animals, read-out: Concentration (brain tissue) Mean): 13.8 ng/mL | Kp at 0.5 h ([2]; Balb/c, mouse, IP 2.5 mg/kg, 0.5 hr, brain tissue vs blood): 0.037 | Concentration (brain tissue) ([2]; IP 2.5 mg/kg, 0.5 hr, individual animals, 2.5 mg/kg): 10.3 ng/mL and 14.4 ng/mL | Concentration (brain tissue) ([2]; IP 2.5 mg/kg, 4 hr, individual animals): BLOQ (BLOQ = Below LOQ, LOQ = 2.0 ng/mL) | Concentration (brain tissue) Mean ([2]; IP 2.5 mg/kg, 4 hr, mean of 3 animals): BLOQ (BLOQ = Below LOQ, LOQ = 2.0 ng/mL) | Concentration (brain tissue) ([2]; IP 2.5 mg/kg, 24 hr, individual animals): BLOQ (BLOQ = Below LOQ, LOQ = 2.0 ng/mL) | Concentration (brain tissue) Mean ([2]; IP 2.5 mg/kg, 24 hr, mean of 3 animals): BLOQ (BLOQ = Below LOQ, LOQ = 2.0 ng/mL) | blood-brain barrier penetration ([2]; brain tissue 0.5 h after single IP injection 2.5 mg/kg): capable of crossing the blood-brain barrier
